Converted amounts (≈) assume the structure as drawn. “And” between values parts separate entries of the source, which are not always exact repeats. Equal values may be shown once. Read-outs that look alike come from different tables or passages of the source.
Legend:
[1] = 20% HPβCD in H2O; cited from earlier work
[2] = reported; cited from earlier work
[3] = Solubility in organic solvents; type: physicochemical; conditions: for solubility: organic solvent or mixture, thermodynamic from solid
Procedure: The solubility of DNQ derivatives in organic solvents was determined by measuring the amount of a given solvent required to dissolve a known amount of compound. Solvent was added to the compound in 50 μL aliquots and the slurry was sonicated. […] Solubility was assessed in DMSO, dichloromethane, and 33% methanol in dichloromethane (FIGS. 9, 10, and 11, respectively).

[4] = pH 7.4 PBS; cited from earlier work
[5] = Solubility in organic solvents; type: physicochemical; conditions: Table 1; for solubility: organic solvent or mixture, thermodynamic from solid, THF
NQO1+ cells = conditions: in vitro; cited from earlier work
NQO1 = NQO1 (Homo sapiens, UniProt P15559); assay: NQO1 enzymatic measurements in vitro; type: biochemical; conditions: 1 μM substrate
Chain of NQO1 (P15559 whole entry): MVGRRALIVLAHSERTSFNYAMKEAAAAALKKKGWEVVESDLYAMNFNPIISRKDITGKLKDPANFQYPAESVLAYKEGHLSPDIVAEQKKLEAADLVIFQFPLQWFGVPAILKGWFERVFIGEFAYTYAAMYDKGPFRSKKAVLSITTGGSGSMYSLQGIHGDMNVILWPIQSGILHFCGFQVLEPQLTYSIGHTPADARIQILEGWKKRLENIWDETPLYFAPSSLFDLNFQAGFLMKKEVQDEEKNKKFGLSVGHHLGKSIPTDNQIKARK
Procedure: As further evidence that the activity of these DNQ derivatives is dependent on their ability to be reduced by NQO1, full enzymatic measurements in vitro were performed. We found a strong correlation between catalytic efficiency of substrates in vitro and their cell culture toxicity. […] This provides strong evidence that the cytotoxicity of DNQ and its derivatives are dependent primarily upon the activity of NQO1 within the cell.

MCF-7 cells = assay: Cytotoxicity to MCF-7 cells with or without 25 μM dicoumarol (sulforhodamine B assay); type: cell-based, human
Procedure: The NQO1-dependent cytotoxicity of the first set of derivatives was determined in MCF-7 cells which express high levels of NQO1. Cells were exposed to DNQ for 2 hours in the presence or absence of 25 μM DIC. The media was then removed and cells were washed once with media then fresh media was added and the cells were incubated for 72 hours. Cell death was assessed using the sulforhodamine B assay previously described. […] Substitution off the nitrogen appeared well tolerated (4-14 and 4-15).
The DNQ derivatives synthesized were assayed for their toxicity to MCF-7 cells with or without DIC. The data from these experiments is organized in Table 4.2. […] This tolerance of sterically-demanding substituents corresponds with a flexible and promiscuous NQO1 active site. The poor activity of hydroxyl derivative 4-41 may be a result of either poor binding with the largely hydrophobic NQO1 active site or with an excessively strong substrate-enzyme interaction because of hydrogen bonding.

healthy mice = assay: in vivo; conditions: mouse, 5 days
Excerpt: (§1) Because of the difficulty of repeated tail vein injections in mice, our group is using IP administration of compound.
(§2) All of these derivatives are currently being assessed for their maximum tolerated dose (MTD) in healthy mice. Compounds are formulated in HPβCD and delivered by IP injection to two mice once daily for five days.

[6] = Maximum tolerated dose in mice; conditions: mouse, ip
Excerpt: as §1, §2

[7] = Solubility in 20% HPβCD solution (pH modulation protocol); type: physicochemical; conditions: 20% HPβCD; for solubility: 20% HPβCD in pH 7.4 PBS, pH 7.4, aqueous with cosolvent or surfactant or cyclodextrin, thermodynamic from solid, Table 4.3
Procedure: The protocol for formulating DNQ compounds in HPβCD is as follows: the DNQ compound is slurried in a 20% solution of HPβCD in pH 7.4 PBS and the pH is then increased by the addition of 10 M NaOH to induce dissolution of the DNQ compound. The pH is returned to pH 7.5-8.0 by the careful addition of 1 M HCl. A 3.3 mM solution of the DNQ compound can be made by this method which is stable at least 24 hours. This represents a 30-fold increase in solubility of DNQ over PBS alone.
Although we were pleased to find active derivatives of DNQ that were up to 4-fold more soluble in water—sufficiently soluble for continuous IV infusion for human administration—this level of solubility was insufficient for animal studies by bolus injection. […] We used the same pH modulation protocol outlined for DNQ described in the specification above. The results are organized in Table 4.3 and FIG. 8. While all compounds were more soluble in HPβCD than in buffer alone, the fold increase in solubility varied widely.

PAR-PARP1 = assay: PARP1 hyperactivation (PAR-PARP1 formation) in vivo in orthotopic Lewis Lung Carcinoma model, immunoblotting; set-up: species or system NOD/SCID mice; conditions: iv at or near MTD
Procedure: Antibodies that specifically detect poly(ADP-ribosyl)ated α-PAR (BD Pharmingen, San Jose, Calif.) proteins (e.g., the most abundant species, poly(ADP-ribosyl)ated PARP1, PAR-PARP1) and α-PARP1 (sc-8007, Santa Cruz Biotechnology) antibodies were used at 1:4000 and 1:2000 dilutions, respectively. α-Tubulin was monitored for loading.
To generate a known control to monitor the formation of poly(ADP-ribose)ylated-polymerase 1 (PAR-PARP1) in cells, LLC tumor cells were treated in vitro with hydrogen peroxide (H2O2, 0.5 μM) for 15 minutes, and whole cell protein lysates were separated by SDS-PAGE using the α-PAR (BD Pharmingen, San Jose, Calif.) antibody described above. PAR-PARP1 formation was then assessed by immunoblot analyses as previously described in Huang et al., Cancer Research, 2012.
LLC cells (1.0×10^6) were intravenously (iv) injected into the tail veins of female 18-20 gram NOD/SCID mice. Establishment of tumor nodules in the lungs of exposed mice were confirmed by bioluminescence and mice (5/group) were treated intravenously (via tail vein injection) with: (i) hydroxypropyl-beta-cyclodextrin (HPRCD) vehicle alone; (ii) DNQ (7.5 mg/kg); (ii) DNQ-87 (14 mg/kg); (iii) DNQ-107 (10 mg/kg); or (vi) DNQ 9-251 (20 mg/kg) dissolved in HPRCD. At specific times indicated (in mins) after injection of vehicle or drug, mice were euthanized, lungs removed and tumor nodules harvested. […] Extracts from cells treated with H2O2 were used as controls for monitoring PAR-PARP1 formation in LLC tumor cells.

[8] = Aqueous solubility in pH 7.4 PBS by LC-MS; type: physicochemical; conditions: phosphate buffered saline, pH 7.4, aqueous buffer, thermodynamic from solid, PBS pH 7.4; Table 4.3
Procedure: The aqueous solubility of DNQ at pH 7.4 in phosphate buffered saline (PBS) was measured by LC-MS. DNQ was sonicated for 30 minutes in PBS then undissolved solid was removed by filtration through a 0.45 μm syringe filter and the filtrate was analyzed by LC-MS (λ=275 nm, ESI-TOF in negative mode). The optimal sonication time was determined by sonicating DNQ for 1, 5, 10, and 30 minutes. While the concentration of DNQ in solution increased substantially between 1, 5, and 10 minutes, there was only a minor difference between 10 and 30 minutes. During the 30 minute sonication the water bath warmed to 45° C. (samples were cooled to room temperature before filtration). A calibration curve was generated from 1-100 μM by dissolving DNQ in methanol to a concentration of 500 μM and making dilutions of this stock in 80:20 water:methanol. The calibration curve (measure by UV absorbance) was linear over this range; 1 μM was approximately the limit of detection. […] The solution was very pale yellow.
The aqueous solubility of the compounds was determined by an LC-MS assay as described in the specification above. We applied the calibration curve generated for DNQ to the derivatives under the assumption that the UV profile of the derivatives of DNQ would be similar to that of DNQ.
After sonication and filtration most of the aqueous solutions were colorless. The solutions of DNQ, 4-31, and 4-37 were faintly yellow while 4-8, 4-14 and 4-41 were substantially more colored. The solution of 4-8, 4-14 and 4-41 were diluted 10-fold with PBS prior to LC-MS analysis to ensure that the concentrations fell within the range of the calibration curve.

rats = conditions: cited from earlier work
[9] = cited from earlier work
[10] = 2:1 CH2Cl2:MeOH, Table 4.3, read-out: Solubility in 2:1 CH2Cl2:MeOH
[11] = CH2Cl2:MeOH 2:1, Table 1, read-out: CH2Cl2:MeOH 2:1 solubility
[12] = CH2Cl2, Table 1, read-out: CH2Cl2 solubility
[13] = DMSO, Table 1, read-out: DMSO solubility
[14] = Homo sapiens, MCF7, Table 1, read-out: MCF7 IC50
[15] = Homo sapiens, MCF7, classification in figure legends of FIGS. 7-11, read-out: IC50 ("active" / generally "inactive" compounds)

For `CC1(C)CCC2=C(O1)c1ccccc1C(=O)C2=O` [β-lap, β-lapachone, reference compound], the “fold increase in solubility in HPβCD” value [1] is listed as about 150 fold, the “time to complete degradation in whole blood” value [2] is listed as at most 30 min and the “CH2Cl2:MeOH 2:1 solubility” value ([3]; CH2Cl2:MeOH 2:1, Table 1) is listed as 1400 mM. The CH2Cl2 solubility ([3]; CH2Cl2, Table 1) was 1650 mM, the DMSO solubility ([3]; DMSO, Table 1) was 170 mM and the aqueous solubility [4] was about 0.16 mM (≈ 38.8 µg/mL). For the same molecule, the THF solubility [5] was 660 mM, the LD50 (NQO1+ cells) was 2 to 10 µM and the “NQO1 Initial Velocity @ 1 μM” value (NQO1) was 150. For the same molecule, the “Fold Protection of MCF7 cells w/ 25 μM dicoumarol” value (MCF-7 cells; Table 1) was 2.1 and the IC50 (MCF-7 cells; Table 1, read-out: MCF7 IC50) was 3700 nM.
With `Cc1cc(=O)[nH]c2c1C(=O)c1c(C)cc(=O)n(CCC(C)(C)C)c1C2=O` [Compound 9-251] the “tolerated concentration relative to DNQ” value (healthy mice) was 3.5 fold, the MTD at 5 days ([6]; in vivo) was 22 mg/kg and 62 µmol/kg and the “Solubility in CH2Cl2” value ([3]; CH2Cl2, Table 4.3) was 31 mM (≈ 11000 µg/mL). The “Solubility in DMSO” value ([3]; DMSO, Table 4.3) was 15 mM (≈ 5320 µg/mL), the solubility [3, 10] was 120 mM (≈ 42500 µg/mL) and the solubility [3, 11] was 120 mM (≈ 42500 µg/mL). It also gave a solubility [3, 12] of 31 mM (≈ 11000 µg/mL), a solubility [3, 13] of 15 mM (≈ 5320 µg/mL) and a solubility [5] of 23 mM (≈ 8150 µg/mL). The “fold increase in solubility in HPβCD over PBS alone” value [7] was 3000 fold, the solubility [7] was 19 mM (≈ 6730 µg/mL) and the “PAR-PARP1 formation in tumor tissue” value (PAR-PARP1) was “higher levels of PAR-PARP1 formation”. For the same molecule, the solubility at 30 min [8] was 0.007 mM (≈ 2.48 µg/mL), the “NQO1 Initial Velocity @ 1 μM” value (NQO1) was 2000 ± 100 and the IC50 (MCF-7 cells; [14]) was 190 ± 20 nM. It also gave an IC50 (MCF-7 cells; Homo sapiens, MCF7, Table 4.2, no DIC, ± s.e., read-out: IC50 vs. MCF-7 cells) of 220 ± 40 nM, an IC50 (MCF-7 cells; [15]) of under 500 nM and an IC50 (MCF-7 cells; Homo sapiens, MCF7, read-out: IC50 vs. MCF-7 cells +25 μM DIC, Table 4.2, +25 μM DIC, ± s.e.) of 1600 ± 600 nM. The “Fold Protection of MCF7 cells w/ 25 μM dicoumarol” value (MCF-7 cells; Table 1) was 8 and the “Fold protection by DIC” value (MCF-7 cells; Table 4.2) was 7.1.
For “2-hydroxypropyl-beta-cyclodextrin [HPβCD]”, the “MTD by IV injection” value (rats) is listed as “approximately 2.25 g/kg” and the “tolerated dose by IP injection” value [9] is listed as over 5000 mg/kg.
In the case of `CCc1cc(=O)n(C)c2c1C(=O)c1c(C)cc(=O)[nH]c1C2=O` [Compound 107], the MTD at 5 days [6] is reported as ≤ 10 mg/kg and ≤ 35 µmol/kg, the “Solubility in CH2Cl2” value ([3]; CH2Cl2, Table 4.3) is reported as 5.5 mM (≈ 1640 µg/mL) and the “Solubility in DMSO” value ([3]; DMSO, Table 4.3) is reported as 31 mM (≈ 9250 µg/mL). It also gave a solubility [3, 10] of 37 mM (≈ 11000 µg/mL), a solubility [3, 11] of 37 mM (≈ 11000 µg/mL) and a solubility [3, 12] of 5.5 mM (≈ 1640 µg/mL). The solubility [3, 13] was 31 mM (≈ 9250 µg/mL), the solubility [5] was 4.7 mM (≈ 1400 µg/mL) and the solubility [7] was 4.4 mM (≈ 1310 µg/mL). The “PAR-PARP1 formation in tumor tissue” value (PAR-PARP1) was “higher levels of PAR-PARP1 formation”, the solubility at 30 min [8] was 0.439 mM (≈ 131 µg/mL) and the “NQO1 Initial Velocity @ 1 μM” value (NQO1) was 1400 ± 100. It also gave an IC50 (MCF-7 cells; Homo sapiens, MCF7, 2 h, Table 4.1, 2 h exposure, no DIC, ± s.e., read-out: IC50 vs. MCF-7 cells) of 280 ± 60 nM, an IC50 (MCF-7 cells; [14]) of 280 nM and an IC50 (MCF-7 cells; [15]) of under 500 nM. For the same molecule, the IC50 (MCF-7 cells; Homo sapiens, MCF7, read-out: IC50 vs. MCF-7 cells +25 μM DIC, Table 4.1, +25 μM DIC, ± s.e.) was 1300 ± 400 nM, the “Fold Protection of MCF7 cells w/ 25 μM dicoumarol” value (MCF-7 cells; Table 1) was 4.5 and the “Fold protection by DIC” value (MCF-7 cells; Table 4.1) was 4.5.

— patent US10285986B2, “Compounds and anti-tumor NQO1 substrates” (The Board of Trustees of the University of Illinois, priority 2011, dated 2019)
